Data on 15 compounds can be found in ChEMBL document CHEMBL1201862, “PubChem BioAssay data set” (2004).

SMILES strings stand for the structures.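 The compound was tested at five concentrations on cells cultured in 96-well plates, with a 48-hour exposure period. GI50 is the concentration that inhibits growth by half.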 Active and inactive are the calls of the source. Rule as the data show it: active = GI50 up to about 1.1 µM and inactive = higher.

Experiment in all cases: growth of human tumour cells (NCI), 48 h
In assay [1] the test system is A549.
In assay [2] the test system is DMS-114.
Assay [3] deals with OVCAR-5.
Assay [4] concerns M19-MEL.
In assay [5] the test system is SF-295.
The subject of assay [6] is HL-60.
The test system of assay [7] is NCI-H226.
Assay [8] deals with SN12C.
Assay [9] has as its system A498.
The test system of assay [10] is SNB-19.
Assay [11] has as its system XF498.
Assay [12] relates to SNB-78.
Assay [13] relates to HOP-18.
For assay [14], the system named is SK-MEL-5.
Assay [15] deals with SR.
Assay [16] deals with PC-3.
The subject of assay [17] is MDA-MB-231.
Assay [18] relates to DU-145.
Assay [19] relates to Hs-578T.
Assay [20] relates to BT-549.

Consider `COc1cc(C2(c3ncc[nH]3)SSSCC2O)ccc1O` (centres undefined), for which the GI50 in assay [1] is > 57.4 µM (inactive); in assay [2], 18.2 µM (inactive); in [3], > 100 µM (inactive); in [4] it was 12.2 µM (inactive); in assay [5] it was 39.1 µM (inactive); in assay [6], 29.6 µM (inactive). The GI50 in [7] is 66.4 µM (inactive); in assay [8], 47.8 µM (inactive); in [9], 79.3 µM (inactive); in assay [10], > 87.7 µM (inactive); in [11], > 71 µM (inactive); in assay [12], 34.2 µM (inactive). Moreover, the values for the GI50 in assay [13] and in assay [14] were > 66.4 µM (inactive) and 11.7 µM (inactive), respectively.
As for `COc1ccc(C2C(Cl)C(=O)N2NC(=O)c2ccccc2O)cc1` (centres undefined), the GI50 in assay [1], in assay [15], in [2], in assay [4], in assay [5] and in assay [6] was > 100 µM (inactive) throughout. Also, the GI50 in [8], in assay [10] and in assay [14] was > 100 µM (inactive) in each case.
Consider `CC(=O)NNc1nc(C)c(C(=O)NNC(=O)C(=O)Nc2cccc(C(C)=O)c2)s1`, for which the GI50 in assay [1] is 34.8 µM (inactive); in assay [15], 18 µM (inactive); in assay [2] it was 18.3 µM (inactive); in [3] it was > 100 µM (inactive); in assay [4], 19.9 µM (inactive); in [5], 31.4 µM (inactive). Besides, the GI50 in [6] was 25.5 µM (inactive); in assay [7], 22.8 µM (inactive); in assay [8], 15.9 µM (inactive); in [9], 20.7 µM (inactive); in assay [10], 41 µM (inactive); in assay [11], 16.4 µM (inactive). Besides, the values for the GI50 in assay [12] and in [14] were 75.3 µM (inactive) and 95.3 µM (inactive), respectively.
On to `COC(=O)[C@H](CC(C)C)NC(=O)[C@H](Cc1ccccc1)N1CC2C=CC1C2` (some centres undefined), for which the GI50 in [1] is > 100 µM (inactive); in assay [2], > 100 µM (inactive); in [3], > 100 µM (inactive); in assay [4], > 100 µM (inactive); in assay [5], > 100 µM (inactive); in [6], 47.6 µM (inactive). Moreover, the GI50 in assay [7], in assay [8], in assay [9], in assay [10], in assay [11] and in assay [13] was > 100 µM (inactive) in each case. In addition, in assay [14], the GI50 is > 100 µM (inactive).
For `C=CCN(N=O)C(=O)N(CCC)CCCCC(NC(C)=O)C(=O)NCc1ccccc1` (centres undefined), the GI50 in [1] was > 100 µM (inactive); in assay [2] it was 59.2 µM (inactive); in [3] it was > 100 µM (inactive); in [4], 56 µM (inactive); in assay [5], > 100 µM (inactive); in [6] it was 21 µM (inactive). The GI50 in assay [7], in assay [8], in [9], in assay [10], in [11] and in assay [13] was > 100 µM (inactive) throughout. Moreover, the GI50 in assay [14] is 67.9 µM (inactive).
`O=C(O)CNS(=O)(=O)c1ccc(NC(=O)Nc2ccccc2)cc1`: the GI50 was > 100 µM (inactive) in [1]; > 100 µM (inactive) in assay [2]; > 100 µM (inactive) in assay [3]; > 38 µM (inactive) in assay [4]; > 100 µM (inactive) in assay [5]; > 31.6 µM (inactive) in assay [6]. Moreover, the GI50 in assay [7], in assay [8], in assay [9], in [10], in assay [11] and in assay [12] was > 100 µM (inactive) in each case. Also, the GI50 in [13] and in assay [14] was > 100 µM (inactive) throughout.
Regarding `COC(=O)c1c(O)ccc2c1c1c(n2Cc2cccc(C)c2)C(=O)c2ccccc2C1`, the GI50 in assay [1] is 25.2 µM (inactive); in assay [15], 13.7 µM (inactive); in assay [16], 9.1 µM (inactive); in assay [17] it was 13.6 µM (inactive); in assay [18], 51.4 µM (inactive); in assay [19], 23.2 µM (inactive). Also, the GI50 was 22 µM (inactive) in assay [3]; 24.9 µM (inactive) in [5]; > 75 µM (inactive) in [6]; 19.7 µM (inactive) in assay [7]; 12.9 µM (inactive) in assay [8]; 40.8 µM (inactive) in [9]. Besides, the GI50 in assay [20] was 26.5 µM (inactive); in assay [10], > 75 µM (inactive); in assay [14] it was 29.2 µM (inactive).
For `COC(=O)C1CCC(=O)N1C(=O)Cc1ccc(OC)cc1` (centres undefined), the GI50 in assay [1], in assay [2], in [3], in assay [4], in assay [5] and in assay [7] was > 100 µM (inactive) throughout. Further, the GI50 in assay [8], in assay [9], in assay [10], in [11], in assay [12] and in assay [14] was > 100 µM (inactive) in each case.
Turning to `CC(C)C1NC(=O)CC(c2ccccc2)N(N=O)C1c1ccccc1` (centres undefined), the GI50 in [1] was > 100 µM (inactive); in assay [2], > 95.7 µM (inactive); in assay [3] it was > 100 µM (inactive); in assay [4], > 100 µM (inactive); in assay [5], > 100 µM (inactive); in assay [6], 74.5 µM (inactive). Besides, the GI50 in [7] is > 100 µM (inactive); in [8], > 100 µM (inactive); in assay [9], > 100 µM (inactive); in assay [10], > 100 µM (inactive); in assay [11], 37.8 µM (inactive); in assay [12] it was > 100 µM (inactive). The GI50 in [13] was > 100 µM (inactive); in [14], > 83.6 µM (inactive).
For the compound `C=CCOC1=C(OCC=C)C(C2COC(C)(C)O2)OC1=O` (centres undefined), the GI50 in assay [1] was > 100 µM (inactive); in assay [15], 98.2 µM (inactive); in assay [16] it was > 100 µM (inactive); in assay [17] it was > 100 µM (inactive); in assay [18] it was > 100 µM (inactive); in assay [19], > 100 µM (inactive). Further, the GI50 in [3] was > 100 µM (inactive); in assay [5], > 100 µM (inactive); in assay [6], 45 µM (inactive); in [7] it was > 100 µM (inactive); in assay [8], > 100 µM (inactive); in [9] it was > 100 µM (inactive). For the same compound, the GI50 in [20], in assay [10] and in assay [14] was > 100 µM (inactive) throughout.
For `O=C1C2=C(C3=NCCc4c[nH]c1c43)c1c(Br)cc(Br)cc1CCN2`, the GI50 is 2.73 µM (inactive) in [1]; 2.02 µM (inactive) in assay [2]; 4.19 µM (inactive) in assay [3]; 0.661 µM (active) in [4]; 2.42 µM (inactive) in assay [5]; 1.62 µM (inactive) in assay [6]. Also, the GI50 is 4.41 µM (inactive) in [7]; 2.28 µM (inactive) in assay [8]; 11.2 µM (inactive) in assay [9]; 11.2 µM (inactive) in assay [10]; 10.7 µM (inactive) in assay [11]; 5.55 µM (inactive) in [12]. In addition, the GI50 in assay [13] was 3.15 µM (inactive); in assay [14], 1.62 µM (inactive).
Turning to `CCCCP1(=O)C=CC(Cl)=C(C)C1` (centres undefined), the GI50 in assay [1], in assay [3], in assay [4], in assay [5], in assay [6] and in assay [8] was > 100 µM (inactive) in each case. In addition, the GI50 in assay [9], in assay [12], in assay [13] and in [14] was > 100 µM (inactive) throughout.
As for `c1ccc(COC2(OCc3ccccc3)CC3OC2C2NN=NC32)cc1` (centres undefined), the GI50 is 57.1 µM (inactive) in [1]; > 100 µM (inactive) in assay [3]; 17.7 µM (inactive) in [4]; 23.1 µM (inactive) in [5]; 11.1 µM (inactive) in assay [6]; 18.1 µM (inactive) in assay [7]. Further, the GI50 in assay [8] is > 10 µM (inactive); in [9], > 100 µM (inactive); in assay [11] it was 19.3 µM (inactive); in [12], 28.7 µM (inactive); in assay [13] it was 36.2 µM (inactive); in assay [14], 17.1 µM (inactive).
`CC1(C)CCC(C)(C)c2c1ccc(O)c2Cc1c(O)ccc2c1C(C)(C)CCC2(C)C`: the GI50 is 2.27 µM (inactive) in assay [1]; 2.7 µM (inactive) in assay [15]; 2 µM (inactive) in assay [16]; 1.66 µM (inactive) in assay [17]; 2.23 µM (inactive) in assay [18]; 2.84 µM (inactive) in [19]. Further, the GI50 in [3] was 2.25 µM (inactive); in [5], 2.45 µM (inactive); in [6], 2.76 µM (inactive); in [7], 1.88 µM (inactive); in assay [8] it was 1.82 µM (inactive); in [9], 1.79 µM (inactive). Moreover, the GI50 in assay [20] was 2.33 µM (inactive); in [10], 2.28 µM (inactive); in [14], 1.87 µM (inactive).
As to `Cc1nc(-c2cccnc2)sc1C(=O)CC(=O)C(=O)Nc1cccc(NC(=O)C(=O)CC(=O)c2sc(-c3cccnc3)nc2C)n1`, the GI50 in assay [1], in [15], in assay [16], in assay [17], in assay [18] and in assay [19] was > 100 µM (inactive) throughout. Further, the GI50 in assay [3], in assay [5], in [6], in assay [7], in [8] and in assay [9] was > 100 µM (inactive) each time. Besides, the GI50 in assay [20], in assay [10] and in [14] was > 100 µM (inactive) in each case.
